In US20220227735A1, “THERAPEUTIC METHODS AND COMPOUNDS” (RUTGERS, THE STATE UNIVERSITY OF NEW JERSEY, priority 2019, published 2022):
Where two headings read alike, the source gives them in different places.

Key:
human PKG (hPKG) = assay: Human PKG IMAP fluorescence polarization kinase assay; assay type: biochemical; settings: compound at 10 μm; recombinant hPKG, 10 uM ATP, 1 uM cGMP, FAM-IP3R substrate
From the text: Human PKG, cloned into a pENTR221 vector, was obtained from DNASU.org. (HsCD00351766). It was cloned into a mammalian expression plasmid, Gateway pDEST27 (Invitrogen) for expression as a GST fusion protein, using LR Clonase II Plus enzyme (Invitrogen). The hPKG-pDEST27 plasmid was amplified in DH5a Max Efficiency Competent Cells and purified with a PureYield Plasmid Midiprep System (Promega) following the manufactures protocol. Expi293 cells were transfected with hPKG-pDEST27 using the Expifectamine 293 Transfection Kit (Gibco). After 18 hours, enhancing reagent (Gibco) was added. Cells were then collected 48 hours post-enhancing, centrifuged at 2000×g for 10 min, washed in ice cold PBS and frozen as a pellet at −80° C. until protein purification. The cell pellet was lysed with Mammalian Protein Extraction Reagent (Thermo Fisher) for 10-15 minutes. The lysate was centrifuged at 21,000×g for 15 minutes at 4° C. The supernatant was incubated for 1 h at 4° C. with glutathione resin that was pre-washed 10 times with ice cold Wash Buffer (50 mM Hepes pH 7.8, 120 mM KCl, 20 mM NaCl, 10% glycerol). The resin was loaded onto a column and washed with resin wash buffer by gravity flow until no more protein was detectable in the washes by Bradford assay. Protein was eluted with 10 mg/ml glutathione in Wash buffer. The protein was concentrated using a 30K MWCO Corning Spin X concentrator and assayed for activity as described above.
(§1) Plasmodium falciparum PKG (PfPKG) and human PKG (hPKG) kinase activity was assayed using a commercial immobilized metal ion affinity-based fluorescence polarization (IMAP) assay according to the manufactures protocol (Molecular Devices). Briefly, kinase assays (20 μl in black half volume 96 well microtiter plates) contained; 10 mM Tris-HCl, pH 7.2, 10 mM MgCl2, 0.05% NaN3, 0.01% Tween® 20, 10 uM ATP, 1 uM cGMP and 21 ng of recombinant enzyme per well. Compounds were preincubated with enzyme at 25° C. for 15 minutes and reactions were initiated with addition of 120 nM fluorescent peptide substrates, FAM-PKAtide for PfPKG and FAM-IP3R for hPKG (Molecular Devices). Fluorescent polarization was measured using a Synergy 2 Microplate reader (BioTek, Winooski, Vt.). Fluorescent polarization was read in parallel and perpendicular with an excitation wavelength of 485 nm and an emission wavelength of 528 nm. IC50 data were analyzed using a four parameter logistic curve fit using Microsoft Excel Solver.

[1] = target: T1, Plasmodium falciparum PKG (PfPKG) (Plasmodium falciparum, UniProt Q8I719); assay: PfPKG IMAP fluorescence polarization kinase assay; assay type: biochemical
T1 construct: Full length PfPKG was cloned into the pTrcHisC vector for expression in BL21 (DE3) Star cells; His tag (pTrcHisC vector) (N); made in house; host or cells: E. coli BL21 (DE3) Star
T1 sequence (Q8I719 whole entry): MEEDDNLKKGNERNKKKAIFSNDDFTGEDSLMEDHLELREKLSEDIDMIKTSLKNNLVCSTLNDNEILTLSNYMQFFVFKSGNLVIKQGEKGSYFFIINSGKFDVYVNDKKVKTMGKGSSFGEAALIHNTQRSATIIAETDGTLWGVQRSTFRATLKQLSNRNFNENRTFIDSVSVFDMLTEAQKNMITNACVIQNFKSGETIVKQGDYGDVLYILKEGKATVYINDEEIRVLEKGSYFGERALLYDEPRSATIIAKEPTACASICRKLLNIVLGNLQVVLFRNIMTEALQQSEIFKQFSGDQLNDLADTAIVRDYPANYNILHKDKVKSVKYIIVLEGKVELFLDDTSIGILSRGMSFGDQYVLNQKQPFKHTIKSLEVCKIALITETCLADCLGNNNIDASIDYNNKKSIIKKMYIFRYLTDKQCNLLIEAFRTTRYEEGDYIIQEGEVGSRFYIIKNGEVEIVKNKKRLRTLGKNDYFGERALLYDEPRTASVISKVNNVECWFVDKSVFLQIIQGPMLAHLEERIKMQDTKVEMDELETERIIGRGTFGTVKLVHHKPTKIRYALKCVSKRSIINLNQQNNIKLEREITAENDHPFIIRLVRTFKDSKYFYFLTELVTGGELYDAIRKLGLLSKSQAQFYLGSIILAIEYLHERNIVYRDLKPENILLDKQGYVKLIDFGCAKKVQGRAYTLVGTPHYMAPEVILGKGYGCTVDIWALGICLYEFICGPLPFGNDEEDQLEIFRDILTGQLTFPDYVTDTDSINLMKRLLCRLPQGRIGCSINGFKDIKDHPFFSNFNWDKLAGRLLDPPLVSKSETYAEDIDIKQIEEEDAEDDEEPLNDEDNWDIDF
Description: Full length PfPKG was cloned into the pTrcHisC vector for expression in BL21 (DE3) Star cells. An LB culture containing 50 ug/ml carbenicillin (250 mL) was grown overnight at 37° C. The following day the culture was cooled on ice for about 10-15 minutes and divided equally into two new 125 mL cultures. 125 ml of fresh LB broth containing carbenicillin was added to each flask bringing the volume of each flask to 250 ml. Cultures were shaken at 18° C. before induction with IPTG (1.0 mM) for 18-24 h. The bacterial pellet was frozen at −80° C. until protein purification. Cells were lysed with Bacterial Protein Extraction Reagent (Thermo Scientific) on ice for 10-15 min. Supernatant was obtained after centrifugation of lysate at 21,000×g for 15 min at 4° C. Supernatant was incubated for 30 minutes at 4° C. with rotation with HisPur Cobalt Resin (Thermo Scientific), pre-washed with Wash Buffer (50 mM Hepes pH 7.8, 120 mM KCl, 20 mM NaCl, 10 mM Imidazole). Resin was added to a gravity column that was allowed to empty through gravity flow. The resin was washed with Wash buffer until no more protein is eluted off the column as determined by Bradford assay. A second wash was performed with Wash buffer containing 300 mM NaCl as in the previous wash step. Bound protein was eluted in 50 mM Hepes pH 7.8, 120 mM KCl, 20 mM NaCl, 250 mM Imidazole. Protein was dialyzed overnight in 50 mM Hepes pH 7.8, 120 mM KCl, 20 mM NaCl and 10% glycerol, with two buffer exchanges. Dialyzed protein was concentrated in a Corning Spin-X concentrator and assayed for activity using the IMAP FP Progressive Screening Expression kit (Molecular Devices, catalog #R8127) following the manufacturer's protocol.
as §1

[2] = recombinant PfPKG, 10 uM ATP, 1 uM cGMP, FAM-PKAtide substrate, read-out: PfPKG (μm)

Q: Which results are given for Cc1cnccc1-c1cc(C2CCN(C)CC2)[nH]c1-c1ccc(F)cc1 [Example 3, 4-(2-(4-fluorophenyl)-5-(1-methylpiperidin-4-yl)-1H-pyrrol-3-yl)-3-methylpyridine]?
A: Human PKG (10 μm) (human PKG (hPKG)): 45; IC50 [1, 2]: < 1000 nM

Q: CCOC(=O)c1c(C2CCN(C)CC2)[nH]c(-c2ccc(F)cc2)c1-c1ccncc1 [Example 16, Ethyl 5-(4-fluorophenyl)-2-(1-methylpiperidin-4-yl)-4-(pyridin-4-yl)-1H-pyrrole-3-carboxylate] was tested. Which “Human PKG (10 μm)” value (human PKG (hPKG)) did it give?
A: 18

Q: And the IC50 [1, 2]?
A: < 1000 nM

Q: CN1C[C@@H]2C(c3cc(-c4ccncc4)c(-c4ccc(F)cc4)[nH]3)[C@@H]2C1 (stereo partly drawn) [Example 26, (1R,5S)-6-(5-(4-fluorophenyl)-4-(pyridin-4-yl)-1H-pyrrol-2-yl)-3-methyl-3-azabicyclo[3.1.0]hexane] was tested. Which “Human PKG (10 μm)” value (human PKG (hPKG)) did it give?
A: 7

Q: What about the IC50 [1, 2] of the same compound?
A: < 1000 nM

Q: With CN1C2CCC1CC(c1cc(-c3ccncc3)c(-c3ccc(F)cc3)[nH]1)C2 (stereo not shown) [Example 27, 3-(5-(4-fluorophenyl)-4-(pyridin-4-yl)-1H-pyrrol-2-yl)-8-methyl-8-azabicyclo[3.2.1]octane] as the compound, how does the “Human PKG (10 μm)” value (human PKG (hPKG)) read?
A: 32

Q: And the IC50 [1]?
A: < 1000 nM

Q: For CN1CCC(c2cc(-c3ccnc(C#N)c3)c(-c3ccc(F)cc3)[nH]2)CC1 [Example 9, 4-(2-(4-fluorophenyl)-5-(1-methylpiperidin-4-yl)-1H-pyrrol-3-yl)picolinonitrile], which “Human PKG (10 μm)” value (human PKG (hPKG)) is on record?
A: 16

Q: What about the IC50 [1, 2] of the same compound?
A: < 1000 nM

Q: Which “Human PKG (10 μm)” value (human PKG (hPKG)) does the source give for CN1CCC(c2cc(-c3ccncc3)c(-c3ccc(F)cc3)[nH]2)CC1 [TSP, 4-(2-(4-fluorophenyl)-5-(1-methylpiperidin-4-yl)-1H-pyrrol-3-yl)pyridine, reference compound] here?
A: 59

Q: And the IC50 [1, 2]?
A: < 1000 nM

Q: CN1CCC(c2cc(-c3ccnc(Br)c3)c(-c3ccc(F)cc3)[nH]2)CC1 [Example 2, 2-bromo-4-(2-(4-fluorophenyl)-5-(1-methylpiperidin-4-yl)-1H-pyrrol-3-yl)pyridine] was tested. Which “Human PKG (10 μm)” value (human PKG (hPKG)) did it give?
A: 60

Q: What about the IC50 [1, 2] of the same compound?
A: < 1000 nM

Q: For C[C@H]1C[C@H](c2cc(-c3ccncc3)c(-c3ccc(F)cc3)[nH]2)CCN1C (single isomer, unassigned) [Example 30, 4-(5-(trans-1,2-dimethylpiperidin-4-yl)-2-(4-fluorophenyl)-1H-pyrrol-3-yl)pyridine], which IC50 [1, 2] is on record?
A: < 1000 nM

Q: Which “Human PKG (10 μm)” value (human PKG (hPKG)) does the source give for COc1ccc(-c2[nH]c(C3CCN(C)CC3)cc2-c2ccncc2)cc1 [Example 34, 4-(2-(4-methoxyphenyl)-5-(1-methylpiperidin-4-yl)-1H-pyrrol-3-yl)pyridine] here?
A: 38

Q: What about the IC50 [1, 2] of the same compound?
A: < 1000 nM

Q: Which “Human PKG (10 μm)” value (human PKG (hPKG)) does the source give for CN1CCC(c2cc(-c3ccnc(N)c3)c(-c3ccc(F)cc3)[nH]2)CC1 [Example 7, 4-(2-(4-fluorophenyl)-5-(1-methylpiperidin-4-yl)-1H-pyrrol-3-yl)pyridin-2-amine] here?
A: 48

Q: And the IC50 [1, 2]?
A: < 1000 nM

Q: CN1CCC(c2[nH]c(-c3ccc(F)cc3)c(-c3ccncc3)c2C#N)CC1 [Example 18, 5-(4-fluorophenyl)-2-(1-methylpiperidin-4-yl)-4-(pyridin-4-yl)-1H-pyrrole-3-carbonitrile] was tested. Which “Human PKG (10 μm)” value (human PKG (hPKG)) did it give?
A: 57

Q: And the IC50 [1, 2]?
A: < 1000 nM

Q: What does the source list for CN1CCC(c2cc(-c3ccncc3CO)c(-c3ccc(F)cc3)[nH]2)CC1 [Example 6, (4-(2-(4-fluorophenyl)-5-(1-methylpiperidin-4-yl)-1H-pyrrol-3-yl)pyridin-3-yl)methanol]?
A: Human PKG (10 μm) (human PKG (hPKG)): −1; IC50 [1, 2]: < 1000 nM

Q: For CN1CCC(c2[nH]c(-c3ccc(F)cc3)c(-c3ccncc3)c2CO)CC1 [Example 21, (5-(4-fluorophenyl)-2-(1-methylpiperidin-4-yl)-4-(pyridin-4-yl)-1H-pyrrol-3-yl)methanol], which “Human PKG (10 μm)” value (human PKG (hPKG)) is on record?
A: 12

Q: What about the IC50 [1, 2] of the same compound?
A: < 1000 nM

Q: C=Cc1c(C2CCN(C)CC2)[nH]c(-c2ccc(F)cc2)c1-c1ccncc1 [Example 17, 4-(2-(4-fluorophenyl)-5-(1-methylpiperidin-4-yl)-4-vinyl-1H-pyrrol-3-yl)pyridine] was tested. Which “Human PKG (10 μm)” value (human PKG (hPKG)) did it give?
A: 34

Q: What about the IC50 [1, 2] of the same compound?
A: < 1000 nM

Q: How did the “Human PKG (10 μm)” value (human PKG (hPKG)) turn out when CN1CCC(c2cc(-c3ccncc3C(N)=O)c(-c3ccc(F)cc3)[nH]2)CC1 [Example 13, 4-(2-(4-fluorophenyl)-5-(1-methylpiperidin-4-yl)-1H-pyrrol-3-yl)nicotinamide] was run?
A: −2

Q: And the IC50 [1, 2]?
A: < 1000 nM

Q: What does the source list for Cc1cc(-c2cc(C3CCN(C)CC3)[nH]c2-c2ccc(F)cc2)ccn1 [Example 4, 4-(2-(4-fluorophenyl)-5-(1-methylpiperidin-4-yl)-1H-pyrrol-3-yl)-2-methylpyridine]?
A: Human PKG (10 μm) (human PKG (hPKG)): 30; IC50 [1, 2]: < 1000 nM

Q: With CCc1c(C2CCN(C)CC2)[nH]c(-c2ccc(F)cc2)c1-c1ccncc1 [Example 24, 4-(4-ethyl-2-(4-fluorophenyl)-5-(1-methylpiperidin-4-yl)-1H-pyrrol-3-yl)pyridine] as the compound, how does the “Human PKG (10 μm)” value (human PKG (hPKG)) read?
A: 43

Q: And the IC50 [1, 2]?
A: < 1000 nM

Q: What does the source list for CN1CCC(c2cc(-c3ccncc3)c(-c3ccc(C(F)(F)F)cc3)[nH]2)CC1 [Example 33, 4-(5-(1-methylpiperidin-4-yl)-2-(4-(trifluoromethyl)phenyl)-1H-pyrrol-3-yl)pyridine]?
A: Human PKG (10 μm) (human PKG (hPKG)): 9; IC50 [1, 2]: < 1000 nM

Q: For CN1CCC(c2cc(-c3ccncc3C#N)c(-c3ccc(F)cc3)[nH]2)CC1 [Example 8, 4-(2-(4-fluorophenyl)-5-(1-methylpiperidin-4-yl)-1H-pyrrol-3-yl)nicotinonitrile], which “Human PKG (10 μm)” value (human PKG (hPKG)) is on record?
A: 12

Q: And the IC50 [1, 2]?
A: < 1000 nM

Q: How did the “Human PKG (10 μm)” value (human PKG (hPKG)) turn out when CN1CCc2c(ccc3c(-c4ccncc4)c(-c4ccc(F)cc4)[nH]c23)C1 [Example 11, 2-(4-fluorophenyl)-7-methyl-3-(pyridin-4-yl)-6,7,8,9-tetrahydro-1H-pyrrolo[2,3-f]isoquinoline] was run?
A: 35

Q: What about the IC50 [1, 2] of the same compound?
A: < 1000 nM

Q: What does the source list for C[C@H]1C[C@@H](c2cc(-c3ccncc3)c(-c3ccc(F)cc3)[nH]2)CCN1C (single isomer, unassigned) [Example 29, 4-(5-(cis-1,2-dimethylpiperidin-4-yl)-2-(4-fluorophenyl)-1H-pyrrol-3-yl)pyridine]?
A: Human PKG (10 μm) (human PKG (hPKG)): 26; IC50 [1, 2]: < 1000 nM

Q: Which results are given for CN1CCC(c2[nH]c(-c3ccc(F)cc3)c(-c3ccncc3)c2Br)CC1 [Example 15, 4-(4-bromo-2-(4-fluorophenyl)-5-(1-methylpiperidin-4-yl)-1H-pyrrol-3-yl)pyridine]?
A: Human PKG (10 μm) (human PKG (hPKG)): 52; IC50 [1, 2]: < 1000 nM

Q: How did the “Human PKG (10 μm)” value (human PKG (hPKG)) turn out when CN1CCC(c2cc(-c3ccncc3)c(-c3ccc(F)cc3)n2C)CC1 [Example 14, 4-(2-(4-fluorophenyl)-1-methyl-5-(1-methylpiperidin-4-yl)-1H-pyrrol-3-yl)pyridine] was run?
A: 14

Q: What about the IC50 [1, 2] of the same compound?
A: < 1000 nM

Q: What does the source list for CN1CCC(c2cc(-c3ccn4nnnc4c3)c(-c3ccc(F)cc3)[nH]2)CC1 [Example 12, 7-(2-(4-fluorophenyl)-5-(1-methylpiperidin-4-yl)-1H-pyrrol-3-yl)tetrazolo[1,5-a]pyridine]?
A: Human PKG (10 μm) (human PKG (hPKG)): −35; IC50 [1, 2]: < 1000 nM

Q: How did the “Human PKG (10 μm)” value (human PKG (hPKG)) turn out when CNCc1c(C2CCN(C)CC2)[nH]c(-c2ccc(F)cc2)c1-c1ccncc1 [Example 23] was run?
A: 0

Q: What about the IC50 [1, 2] of the same compound?
A: < 1000 nM
